The results in this text go back to patent EP4175633B1, “THIENO[3,4-C]PYRAZOL-3-YL […] AUTOTAXIN INHIBITORS” (Uni-Pharma Kleon Tsetis Pharmaceutical Laboratories S.A., priority 2020, dated 2022).

Where two headings read alike, the source gives them in different places.

One assay has as its target human ATX (Homo sapiens, UniProt Q13822). In words: Amplex Red activity assay (ATX inhibition, LPC hydrolysis). Format: biochemical. Here is the method: (§1) In a similar approach to TOOS Activity Assay, this widely used method detects the ATX ability to hydrolyze LPC using a test that monitors choline release using Amplex Red fluorescent reagent (10 mM), choline oxidase (0.2 U/mL) and Radish Peroxidase (HRP - 2 U/mL). All reactions were conducted with 2 nM pure ATX and 50 µM LPC (16:0 or 18:0) at 37 °C. Inhibitors (3 mM) were dissolved in dimethyl sulfoxide (DMSO) at concentrations from 0.001 to 5 µmol/L. Fluorescence values were measured on a fluorescent plate reader (Tecan Infinite 200). IC50 values were determined using the values from two independent experiments, using the sigmoid dose-response curve (PrismH software) from the equation f = y0 + a / (1 + exp (- (x-x0) / b) given from SigmaPlot 11.0.
(§2) Subsequently, 50 µL of a buffer solution containing 200 µM LPC 16:0 (final concentration 50 µM) were added to the reaction mixture followed by incubation for another 30 minutes at 37 °C. Finally, 50 µL of working solution containing 200 µM Amplex Red reagent and choline oxidase (0.2 U/mL) […] HRP (2 U/mL), in 50 mM Tris-HCl at pH 8.0 and 5 mM CaCl2, was added to begin the reaction. The reaction was monitored at 37 °C, in a fluorescence plate reader (Tecan Infinite 200) using excitation at 530 nm and reading at 590 nm, every five minutes for 30 minutes at 37°C. The IC50 value was calculated from two independent experiments, using the sigmoid dose-response curve (PrismH software) from the equation f=y0+a/(1+exp(-(x-x0)/b) given from SigmaPlot 11.0.
as §2, with “was” for “were”
(§3) Subsequently, 50 µL of a buffer solution containing 200 µM LPC 16:0 (final concentration 50 µM) was added to the reaction mixture followed by incubation for another 30 minutes at 37 °C. […] The reaction was monitored at 37 °C, in a fluorescence plate reader (Tecan Infinite 200) using excitation at 530 nm and reading at 590 nm, every five minutes for 30 minutes at 37°C. The IC50 value was calculated from two independent experiments, using the sigmoid dose-response curve (PrismH software) from the equation f=y0+a/(1+exp(-(x-x0)/b) given from SigmaPlot 11.0.
as §3

The target in another assay is mouse ATX (Mus musculus, UniProt Q9R1E6). Described as above. Format: biochemical. Here is the method: as §1, §2, §3
Where [1] appears, read: human ATX final concentration 1 nM, LPC 16:0 50 µM, 37 °C, two independent experiments, read-out: IC50 value for human ATX inhibition.
Where [2] appears, read: ATX final concentration 2 nM, LPC 16:0 50 µM, 37 °C, two independent experiments, read-out: IC50 value for the inhibition of mouse ATX.

With `O=C(Nc1c2c(nn1-c1ccc(Br)cc1)CSC2)c1cc(Cl)cc(Cl)c1` [A18], the IC50 on human ATX (values marked *: evaluation performed in human ATX (hATX) 1 nM, read-out: IC50 (µM) (in mATX 2 nM)) was 2.5 µM.

Take `O=C(Nc1c2c(nn1-c1ccncc1)CSC2)c1cccc2ccccc12` [A16]: the IC50 on human ATX (setting [1]) is 7.5 µM. Still for that read-out and setting: the result for `COC(C(=O)Nc1c2c(nn1-c1ccc(Br)cc1)CSC2)(c1ccccc1)C(F)(F)F` (centres unmarked) [A17] reads 2 µM. Turning to `O=C(Nc1c2c(nn1-c1cnccn1)CSC2)c1cccc2ccccc12` [A14], the IC50 is 2.5 µM at mouse ATX (setting [2]) and 1.3 µM at human ATX (setting [1]). For the molecule `O=C(O)c1ccc(-n2nc3c(c2NC(=O)c2cccc4ccccc24)CSC3)cc1` [A15], at mouse ATX (mATX 2 nM (values without asterisk), read-out: IC50 (µM) (in mATX 2 nM)), the concentration for half-maximal inhibition (IC50) is 59.3 µM. `O=C(Nc1c2c(nn1-c1ccc(Br)cc1)CSC2)c1cccc2ccccc12` [A4]: the IC50 at mouse ATX (setting [2]) worked out at 12.7 µM; at human ATX (setting [1]) it was 3.5 µM.
